Patent US8729014B2, “Specific HCV NS3 protease inhibitors” (RFS Pharma, LLC, priority 2010, dated 2014)
pEC50, pIC50: −log10 of the molar value.

Assays:
[1] = test system: CEM (human lymphoblastoid) cells; experiment: Cytotoxicity assay in CEM cells; type: cell-based; conditions: Homo sapiens, CCRF-CEM, 100 μM
Method: (§1) The toxicity of the compounds was assessed in Vero, human PBM, CEM (human lymphoblastoid), MT-2, and HepG2 cells, as described previously (see Schinazi R. F., Sommadossi J.-P., Saalmann V., Cannon D. L., Xie M.-Y., Hart G. C., Smith G. A. & Hahn E. F. Antimicrob. Agents Chemother. 1990, 34, 1061-67). Cycloheximide was included as positive cytotoxic control, and untreated cells exposed to solvent were included as negative controls. The cytotoxicity IC50 was obtained from the concentration-response curve using the median effective method described previously (see Chou T.-C. & Talalay P. Adv. Enzyme Regul. 1984, 22, 27-55; Belen'kii M. S. & Schinazi R. F. Antiviral Res. 1994, 25,1-11).

[2] = Cytotoxicity assay in CEM cells; type: cell-based, human; conditions: human, CEM (human lymphoblastoid) cells
Method: as §1

[3] = target: Hepatitis C Virus NS3/4A protease D168A (Hepatitis C virus genotype 1b, UniProt O92972, D1194A); experiment: biochemical
Sequence of Hepatitis C Virus NS3/4A protease D168A (Hepatitis C virus genotype 1b, UniProt O92972, D1194A) (O92972 1027-1657 D1194A): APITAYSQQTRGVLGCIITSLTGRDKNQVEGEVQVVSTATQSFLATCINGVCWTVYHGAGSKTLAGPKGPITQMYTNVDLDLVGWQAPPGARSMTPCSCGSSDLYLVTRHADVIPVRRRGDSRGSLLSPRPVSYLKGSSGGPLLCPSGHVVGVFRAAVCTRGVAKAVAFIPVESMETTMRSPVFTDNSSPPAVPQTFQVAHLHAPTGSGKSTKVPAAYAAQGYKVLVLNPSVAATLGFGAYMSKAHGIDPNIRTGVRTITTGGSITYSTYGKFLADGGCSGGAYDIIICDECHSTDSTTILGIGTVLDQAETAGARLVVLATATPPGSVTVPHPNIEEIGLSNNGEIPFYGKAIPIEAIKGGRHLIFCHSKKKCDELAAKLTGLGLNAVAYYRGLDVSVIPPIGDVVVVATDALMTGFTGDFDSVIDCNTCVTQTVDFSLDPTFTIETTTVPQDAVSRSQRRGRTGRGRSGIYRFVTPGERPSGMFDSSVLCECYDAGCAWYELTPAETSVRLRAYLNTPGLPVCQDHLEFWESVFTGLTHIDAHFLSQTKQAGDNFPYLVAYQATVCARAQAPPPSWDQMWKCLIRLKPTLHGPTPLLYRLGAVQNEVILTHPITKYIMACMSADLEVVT
Sequence of Hepatitis C Virus NS3/4A protease D168A (Hepatitis C virus genotype 1b, UniProt O92972, D1194A) (O92972 1658-1711 partner limits assumed): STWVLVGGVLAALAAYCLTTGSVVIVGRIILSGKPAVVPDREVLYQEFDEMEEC

[4] = test system: Hepatitis C Virus NS3/4A protease D168A; experiment: biochemical; conditions: D168A vs Wild Type
[5] = target: Hepatitis C Virus NS3/4A protease V36M (Hepatitis C virus genotype 1b, UniProt O92972, V1062M); experiment: HCV NS3/4A protease FRET assay, V36M; type: biochemical
Sequence of Hepatitis C Virus NS3/4A protease V36M (O92972 1027-1657 V1062M): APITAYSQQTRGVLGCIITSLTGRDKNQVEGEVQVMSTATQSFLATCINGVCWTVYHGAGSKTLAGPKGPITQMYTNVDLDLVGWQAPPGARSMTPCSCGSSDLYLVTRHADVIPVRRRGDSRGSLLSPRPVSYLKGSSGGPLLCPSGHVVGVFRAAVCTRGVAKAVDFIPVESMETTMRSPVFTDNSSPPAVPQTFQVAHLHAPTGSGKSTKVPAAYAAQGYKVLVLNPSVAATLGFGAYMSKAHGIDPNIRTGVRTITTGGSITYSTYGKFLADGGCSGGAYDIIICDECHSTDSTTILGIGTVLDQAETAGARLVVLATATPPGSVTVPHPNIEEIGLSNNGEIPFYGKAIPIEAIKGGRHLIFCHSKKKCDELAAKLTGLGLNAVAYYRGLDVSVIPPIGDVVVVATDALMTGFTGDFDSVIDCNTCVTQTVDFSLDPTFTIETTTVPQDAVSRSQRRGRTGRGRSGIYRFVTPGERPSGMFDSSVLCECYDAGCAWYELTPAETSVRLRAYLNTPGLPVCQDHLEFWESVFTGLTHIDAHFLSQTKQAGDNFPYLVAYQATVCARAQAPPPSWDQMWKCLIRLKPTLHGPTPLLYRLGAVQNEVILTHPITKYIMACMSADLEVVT
Sequence of Hepatitis C Virus NS3/4A protease V36M (O92972 1658-1711 partner limits assumed): as the sequence (O92972 1658-1711 partner limits assumed) above

For `C=C[C@@H]1C[C@]1(NC(=O)[C@@H]1C[C@@H](OC(=O)N2Cc3cccc(F)c3C2)CN1C(=O)[C@@H](NC(=O)OC(C)(C)C)C(C)(C)C)C(=O)NS(=O)(=O)C1CC1` [Compound 10], the inhibition at 100 µM [1] was 11%, the pIC50 [2] was less than 4.00 and the pEC50 [3] was 6.24. For the same compound, the EC90 ([3]; D168A, read-out: Anti-HCV protease activity EC90) was 8.3 µM, the “Fold Increase of EC50” value [4] was 115.3 and the “Fold Increase of EC90” value [4] was 278.5. The “Fold Increase of EC50” value ([5]; V36M vs Wild Type) was 0.7, the “Fold Increase of EC90” value ([5]; V36M vs Wild Type) was 1.5 and the pEC50 ([5]; V36M, read-out: Anti-HCV protease activity EC50) was 8.47. It also gave an EC90 ([5]; V36M, read-out: Anti-HCV protease activity EC90) of 45.5 nM.
